As a reminder, the ED50 is the dose at which the effect has come halfway, by size or by number of responders. A high value points to a need for a large dose. As usually defined, the melting point is the temperature, or range, at which the solid turns liquid.

The subject of data set [1] is S. aureus ATCC 29213 and other strains. The data set is described as follows: Systemic infection model in mice, ED50 by Probit analysis. The data set is classed as in vivo. The following applies: Staphylococcus aureus, ATCC29213, Swiss albino mice, survival observed 5 to 7 days, route and regimen not stated per value. Here is the method:
Efficacies of the molecules were determined by systemic infection model. In this model, 6-7 weeks old Swiss albino mice (3 Males and 3 Females/group) weighing 21-25 grams were used. S. aureus ATCC 29213 and other strains were cultured on Columbia Blood agar (DIFCO), overnight, at 37° C. for 18 to 24 hours. Inoculum was prepared in 0.9% saline and optical density (OD) was adjusted at 560 nm to get 100×LD50 dose. Inoculum was diluted 1:1 with 10% Hog Gastric Mucin and 0.5 ml of inoculum was injected intraperitonially to each animal. Test compounds were solubilised in suitable formulation and administered by per-oral, subcutaneous or intra venous route by q.d., b.i.d. or t.i.d. protocol. […] ED50 Value (mg/kg) was calculated by Probit analysis.

Compound `COC(=O)NC[C@H]1CN(c2ccc(-n3cc(Cn4cccn4)nn3)c(F)c2)C(=O)O1` [Example 46, Methyl N-{3-[3-fluoro-4-(4-pyrazol-1-yl-methyl-(1,2,3)triazol-1-yl)-phenyl]-2-oxo-oxazolidin-5-ylmethyl}carbamate] gave an ED50 in data set [1] of 2.53 mg/kg.

In turn, `CC(=O)NC[C@H]1CN(c2ccc(-c3nc(Cn4cncn4)co3)c(F)c2)C(=O)O1` [Example 4, N-{3-[3-fluoro-4-(4-[1,2,4]-triazol-1-ylmethyl-oxazol-2-yl)-phenyl]-2-oxo-oxazolidin-5(S)-ylmethyl}-acetamide] had a melting point of 160 to 162 °C. The compound further came in with an ED50 in data set [1] of 5.38 mg/kg.

The compound `CC(=O)NC[C@H]1CN(c2ccc(-c3nc(Cn4cccn4)co3)c(F)c2)C(=O)O1` [Example 2, N-{3-[3-fluoro-4-(4-pyrazol-1-ylmethyl-oxazol-2-yl)-phenyl]-2-oxo-oxazolidin-5(S)-ylmethyl}-acetamide] yielded a melting point of 204 to 206 °C. It took a dose of 7.1 mg/kg to reach the 50% effect level in data set [1] (ED50).

The compound `CC(=O)NC[C@H]1CN(c2ccc(-n3cc(Cn4cncn4)nn3)c(F)c2)C(=O)O1` [Example 30] returned a melting point of 170 to 171 °C. For the same compound, in data set [1], the ED50 turned out to be 8.5 mg/kg.

As to `COC(=O)NC[C@H]1CN(c2ccc(-n3cnc(Cn4cccn4)c3)c(F)c2)C(=O)O1` [Example 44, Methyl {3-[3-fluoro-4-(4-pyrazol-1-ylmethyl-imidazol-1-yl)-phenyl]-2-oxo-oxazolidin-5-ylmethyl}-carbamate], the melting point turned out to be 130 °C. Besides, the ED50 in data set [1] is 5.02 mg/kg.

As to `CC(=O)NC[C@H]1CN(c2ccc(-c3nc(Cn4ccnc4)cs3)c(F)c2)C(=O)O1` [Example 10, N-{3-[3-fluoro-4-(4-imidazol-1-ylmethyl-thiazol-2-yl)-phenyl]-2-oxo-oxazolidin-5(S)-ylmethyl}-acetamide], the melting point is 192 to 194 °C.
